Assay results as given in PubChem BioAssay AID256 (DTP/NCI, 2004).
Several values for one entry are separate records, joined by “and”; a condition that tells them apart may be missing. Equal values may be shown once. Inconclusive results and toxic doses are left out. How the source made its calls: active means survival T/C of 150% or more; inactive means T/C below 125% in these data.

Test system: CD2F1 mice, L1210 leukemia ip, survival T/C
Assay: NCI In Vivo Anticancer Drug Screen. Data for tumor model L1210 Leukemia (intraperitoneal) in CD2F1 (CDF1) mice
Conditions: endpoint: mean survival time, higher = longer survival
Summary of the method: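 Read-out first: treated-group measurement over vehicle-control measurement, expressed as a ratio. Animals bore a transplanted tumor line and were dosed with compound or vehicle.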

[1] = dose: 100.0 mg/kg/injection, schedule: Q01DX001 (ip), vehicle: saline
[2] = dose: 200.0 mg/kg/injection, schedule: Q01DX001 (ip), vehicle: saline
[3] = dose: 400.0 mg/kg/injection, schedule: Q01DX001 (ip), vehicle: saline
[4] = dose: 100.0 mg/kg/injection, schedule: Q01DX001 (ip), vehicle: saline with Tween-80
[5] = dose: 200.0 mg/kg/injection, schedule: Q01DX001 (ip), vehicle: saline with Tween-80
[6] = dose: 100.0 mg/kg/injection, schedule: Q04DX002 (ip), vehicle: saline with Tween-80
[7] = dose: 200.0 mg/kg/injection, schedule: Q04DX002 (ip), vehicle: saline with Tween-80
[8] = dose: 400.0 mg/kg/injection, schedule: Q01DX001 (ip), vehicle: saline with Tween-80
[9] = dose: 100.0 mg/kg/injection, schedule: Q04DX003 (ip), vehicle: saline with Tween-80
[10] = dose: 200.0 mg/kg/injection, schedule: Q04DX003 (ip), vehicle: saline with Tween-80
[11] = dose: 100.0 mg/kg/injection, schedule: Q01DX009 (ip), vehicle: saline with Tween-80
[12] = dose: 400.0 mg/kg/injection, schedule: Q01DX009 (ip), vehicle: saline with Tween-80
[13] = dose: 400.0 mg/kg/injection, schedule: Q04DX003 (ip), vehicle: saline with Tween-80
[14] = dose: 200.0 mg/kg/injection, schedule: Q01DX009 (ip), vehicle: saline with Tween-80
[15] = dose: 25.0 mg/kg/injection, schedule: Q01DX009 (ip), vehicle: saline with Tween-80
[16] = dose: 25.0 mg/kg/injection, schedule: Q04DX003 (ip), vehicle: saline
[17] = dose: 50.0 mg/kg/injection, schedule: Q01DX009 (ip), vehicle: saline with Tween-80
[18] = dose: 100.0 mg/kg/injection, schedule: Q04DX003 (ip), vehicle: saline
[19] = dose: 12.5 mg/kg/injection, schedule: Q04DX003 (ip), vehicle: saline

Measured: T/C

COc1ccc(C(=O)C2(O)Oc3ccccc3C2=O)cc1 (stereo not drawn)
inactive: dose: 50.0 mg/kg/injection, schedule: Q01DX001 (ip), vehicle: saline 98 % of control | [1] 98 % of control | [2] 98 % of control | [3] 117 % of control

CN(c1ccccc1)c1ccccc1
inactive: [4] 94 % of control | [5] 89 % of control

CC1[N-]CCC[N-]CCC[N-]C(C)C2CCCC1[N-]2.[Ni+2].[O-][Cl+3]([O-])([O-])O (stereo not drawn)
inactive: dose: 50.0 mg/kg/injection, schedule: Q04DX002 (ip), vehicle: saline with Tween-80 104 % of control | [6] 101 % of control and 104 % of control | [7] 93 % of control

NC(N)=Nc1nc2ccccc2[nH]1
inactive: dose: 7.0 mg/kg/injection, schedule: Q01DX009 (ip), vehicle: saline 104 % of control | dose: 14.0 mg/kg/injection, schedule: Q01DX009 (ip), vehicle: saline 104 % of control | dose: 28.0 mg/kg/injection, schedule: Q01DX009 (ip), vehicle: saline 98 % of control

O=C1OC(=O)C2C3c4ccccc4C(c4c3c(-c3ccccc3)c3ccccc3c4-c3ccccc3)C12 (stereo not drawn)
inactive: [4] 87 % of control | [5] 87 % of control | [8] 93 % of control

O=C(COc1ccc(Cl)c(Cl)c1)Nc1ccc[n+](Cc2cccc(Cl)c2S(=O)(=O)F)c1
inactive: [9] 97 % of control | [10] 105 % of control

CCOC(=O)C(c1ccccc1)P(=O)(OCC)OCC (stereo not drawn)
inactive: [6] 111 % of control | [7] 100 % of control | dose: 400.0 mg/kg/injection, schedule: Q04DX002 (ip), vehicle: saline with Tween-80 100 % of control

CCCNC(=O)Oc1cccc(NC(=O)CC)c1
inactive: [11] 96 % of control | [12] 89 % of control

[N-]=[N+]=C1C(=O)NC(=O)N2C3CC(O)C(COC12)O3 (stereo not drawn)
inactive: dose: 75.0 mg/kg/injection, schedule: Q01DX009 (ip), vehicle: saline with Tween-80 106 % of control | dose: 100.0 mg/kg/injection, schedule: Q01DX009 (ip), vehicle: saline sonified 114 % of control | [9] 101 % of control | dose: 150.0 mg/kg/injection, schedule: Q01DX009 (ip), vehicle: saline with Tween-80 108 % of control | dose: 200.0 mg/kg/injection, schedule: Q01DX009 (ip), vehicle: saline sonified 120 % of control | [10] 104 % of control | dose: 300.0 mg/kg/injection, schedule: Q01DX009 (ip), vehicle: saline with Tween-80 112 % of control | dose: 400.0 mg/kg/injection, schedule: Q01DX009 (ip), vehicle: saline sonified 121 % of control | [13] 108 % of control

C=C(NC(C)=O)C(=O)CCC(N)=O
inactive: dose: 5.0 mg/kg/injection, schedule: Q01DX009 (ip), vehicle: saline 101 % of control | dose: 10.0 mg/kg/injection, schedule: Q01DX009 (ip), vehicle: saline 95 % of control | dose: 10.0 mg/kg/injection, schedule: Q04DX003 (ip), vehicle: saline 93 % of control | dose: 20.0 mg/kg/injection, schedule: Q01DX009 (ip), vehicle: saline 98 % of control | dose: 20.0 mg/kg/injection, schedule: Q04DX003 (ip), vehicle: saline 97 % of control

CC12CCC(C(=O)C1=O)C2(C)C (stereo not drawn)
inactive: [9] 102 % of control | [10] 94 % of control | [13] 102 % of control

N=C(CN1CCCCC1)N1CCCCC1
inactive: dose: 25.0 mg/kg/injection, schedule: Q04DX002 (ip), vehicle: saline 104 % of control | dose: 50.0 mg/kg/injection, schedule: Q04DX002 (ip), vehicle: saline 101 % of control | dose: 100.0 mg/kg/injection, schedule: Q04DX002 (ip), vehicle: saline 112 % of control

CCOc1cccc(Cc2cn(Cc3cccc(NC(=O)Nc4ccc(S(=O)(=O)F)cc4)c3)c(=O)[nH]c2=O)c1
inactive: [4] 86 % of control | [5] 92 % of control | [8] 86 % of control

C[n+]1csc2ccccc21
inactive: [4] 104 % of control | [11] 105 % of control | [9] 103 % of control | [5] 98 % of control | [14] 105 % of control | [10] 103 % of control | [8] 104 % of control | [12] 103 % of control | [13] 105 % of control

CCCCCCCCCCC/C=C\C(C#N)C(=O)OCC (stereo not drawn)
inactive: [9] 103 % of control | [10] 108 % of control | [13] 87 % of control

O=c1[nH]c2cc(Cl)ccc2c2ccc(Cl)cc12
inactive: dose: 50.0 mg/kg/injection, schedule: Q01DX001 (ip), vehicle: carboxymethylcellulose (CMC) 98 % of control | dose: 100.0 mg/kg/injection, schedule: Q01DX001 (ip), vehicle: carboxymethylcellulose (CMC) 98 % of control | dose: 200.0 mg/kg/injection, schedule: Q01DX001 (ip), vehicle: carboxymethylcellulose (CMC) 104 % of control | dose: 400.0 mg/kg/injection, schedule: Q01DX001 (ip), vehicle: carboxymethylcellulose (CMC) 95 % of control

Cc1ccc2nc(-c3ccccc3N)[nH]c2c1
inactive: [9] 87 % of control | [10] 92 % of control | [13] 89 % of control

Cc1ccc(S(=O)(=O)SC(Cl)(Cl)Cl)cc1
inactive: dose: 12.5 mg/kg/injection, schedule: Q01DX009 (ip), vehicle: saline 94 % of control | dose: 25.0 mg/kg/injection, schedule: Q01DX009 (ip), vehicle: saline 102 % of control

O=C(O)CCOc1ccc([N+](=O)[O-])cc1
inactive: [11] 96 % of control | [14] 98 % of control | [12] 94 % of control

Cc1nn(-c2ccccc2)c2[nH]cnc(=S)c12
inactive: dose: 12.5 mg/kg/injection, schedule: Q01DX005 (ip), vehicle: other 86 % of control | dose: 25.0 mg/kg/injection, schedule: Q01DX005 (ip), vehicle: other 91 % of control | dose: 50.0 mg/kg/injection, schedule: Q01DX005 (ip), vehicle: other 92 % of control | dose: 100.0 mg/kg/injection, schedule: Q01DX005 (ip), vehicle: other 97 % of control | dose: 200.0 mg/kg/injection, schedule: Q01DX005 (ip), vehicle: other 93 % of control

CCC(CC)N=C(N)N
inactive: [15] 100 % of control | [16] 100 % of control | [17] 93 % of control | dose: 50.0 mg/kg/injection, schedule: Q04DX003 (ip), vehicle: saline 97 % of control | [11] 98 % of control | [18] 94 % of control

CCOC(=O)Nc1cc(NCc2ccccc2)c([N+](=O)[O-])c(N)n1
inactive: dose: 12.5 mg/kg/injection, schedule: Q01DX001 (ip), vehicle: Klucel (hydroxypropylcellulose) (HPC) 109 % of control | dose: 25.0 mg/kg/injection, schedule: Q01DX001 (ip), vehicle: Klucel (hydroxypropylcellulose) (HPC) 101 % of control | dose: 50.0 mg/kg/injection, schedule: Q01DX001 (ip), vehicle: Klucel (hydroxypropylcellulose) (HPC) 91 % of control

O=CN(O)CC(=O)O.[Zn]
inactive: [19] 96 % of control | [16] 95 % of control

CC1(C)C(O)(C#N)C(C)(C)C1(O)C#N (stereo not drawn)
inactive: dose: 6.25 mg/kg/injection, schedule: Q04DX003 (ip), vehicle: saline 102 % of control | [19] 97 % of control

CC#CC(=O)SCCNC(=O)CCNC(=O)CC(C)(C)C
inactive: dose: 12.5 mg/kg/injection, schedule: Q01DX009 (ip), vehicle: saline with Tween-80 101 % of control | [15] 95 % of control | dose: 25.0 mg/kg/injection, schedule: Q04DX003 (ip), vehicle: saline with Tween-80 106 % of control | [17] 98 % of control | dose: 50.0 mg/kg/injection, schedule: Q04DX003 (ip), vehicle: saline with Tween-80 94 % of control | [11] 88 % of control | [9] 98 % of control

O=[N+]([O-])c1ccc(N/N=C(\CCl)c2ccccc2)c([N+](=O)[O-])c1
inactive: [4] 92 % of control | [5] 97 % of control | [8] 92 % of control

N#CNC=Nc1ccccc1
inactive: [18] 95 % of control | dose: 200.0 mg/kg/injection, schedule: Q04DX003 (ip), vehicle: saline 95 % of control | dose: 400.0 mg/kg/injection, schedule: Q04DX003 (ip), vehicle: saline 100 % of control

NC(CO)C(O)C(O)C(O)CO (stereo not drawn)
inactive: [1] 106 % of control | [2] 98 % of control | [3] 103 % of control
